The results in this text go back to patent US12516039B2, “N-linked isoquinoline amides as LRRK2 inhibitors, pharmaceutical compositions, and uses thereof” (Merck Sharp & Dohme LLC, priority 2020, dated 2026).

T1 sequence (Q5S007 970-2527 G2019S limits assumed): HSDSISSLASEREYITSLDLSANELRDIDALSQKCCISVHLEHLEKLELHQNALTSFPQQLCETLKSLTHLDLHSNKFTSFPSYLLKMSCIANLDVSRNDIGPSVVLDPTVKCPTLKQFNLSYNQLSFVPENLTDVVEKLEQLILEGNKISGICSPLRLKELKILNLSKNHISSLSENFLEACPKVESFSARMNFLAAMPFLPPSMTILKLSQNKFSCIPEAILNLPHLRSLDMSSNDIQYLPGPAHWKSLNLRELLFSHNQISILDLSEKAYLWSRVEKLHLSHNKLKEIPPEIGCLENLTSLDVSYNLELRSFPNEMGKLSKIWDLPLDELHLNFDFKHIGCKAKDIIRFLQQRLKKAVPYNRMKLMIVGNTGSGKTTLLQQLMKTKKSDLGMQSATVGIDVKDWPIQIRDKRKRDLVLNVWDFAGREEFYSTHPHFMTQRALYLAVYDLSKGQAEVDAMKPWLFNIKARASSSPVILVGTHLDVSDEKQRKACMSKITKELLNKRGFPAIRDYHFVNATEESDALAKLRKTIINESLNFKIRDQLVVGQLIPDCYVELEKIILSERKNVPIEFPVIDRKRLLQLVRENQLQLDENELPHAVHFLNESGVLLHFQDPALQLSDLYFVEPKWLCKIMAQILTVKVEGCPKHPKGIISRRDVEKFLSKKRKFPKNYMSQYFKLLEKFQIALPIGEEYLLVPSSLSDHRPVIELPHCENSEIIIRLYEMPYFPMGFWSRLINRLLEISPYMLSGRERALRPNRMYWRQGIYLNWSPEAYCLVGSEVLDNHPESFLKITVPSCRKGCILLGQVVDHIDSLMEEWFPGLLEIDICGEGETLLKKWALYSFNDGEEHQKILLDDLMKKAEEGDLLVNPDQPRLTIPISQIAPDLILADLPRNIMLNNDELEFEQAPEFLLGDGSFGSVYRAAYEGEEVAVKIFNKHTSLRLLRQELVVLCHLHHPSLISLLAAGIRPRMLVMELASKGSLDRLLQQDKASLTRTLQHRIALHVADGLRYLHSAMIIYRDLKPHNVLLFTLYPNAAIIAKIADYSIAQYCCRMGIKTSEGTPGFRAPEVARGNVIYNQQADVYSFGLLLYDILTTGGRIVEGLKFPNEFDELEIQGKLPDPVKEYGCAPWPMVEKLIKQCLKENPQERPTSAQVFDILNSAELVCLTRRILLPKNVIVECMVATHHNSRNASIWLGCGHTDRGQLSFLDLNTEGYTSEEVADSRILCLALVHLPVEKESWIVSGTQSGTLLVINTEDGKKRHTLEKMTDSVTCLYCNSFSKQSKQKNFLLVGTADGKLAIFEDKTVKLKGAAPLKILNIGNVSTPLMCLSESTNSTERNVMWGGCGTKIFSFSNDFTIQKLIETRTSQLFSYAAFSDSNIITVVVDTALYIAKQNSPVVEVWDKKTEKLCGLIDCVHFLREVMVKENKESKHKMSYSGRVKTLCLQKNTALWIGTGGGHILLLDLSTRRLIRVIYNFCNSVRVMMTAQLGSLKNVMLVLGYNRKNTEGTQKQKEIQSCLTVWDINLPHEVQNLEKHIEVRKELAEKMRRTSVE

The first assay addresses T1, GST-tagged truncated human mutant G2019S LRRK2 (Homo sapiens, UniProt Q5S007, G2019S).
T1 construct: GST-tagged truncated human mutant G2019S LRRK2; purchased Life Technologies Corporation (Carlsbad, CA)
Put plainly: LRRK2 G2019S Km ATP LanthaScreen assay. The note with it: 134 μM ATP (Km ATP), LRRKtide substrate, mean of several tests. It is filed as biochemical. The method, then:
Unless otherwise noted, all reactions are magnetically stirred. Unless otherwise noted, when diethyl ether is used in the experiments described below, it is Fisher ACS certified material and is stabilized with BHT. Unless otherwise noted, “concentrated” and/or “solvent removed under reduced pressure” means evaporating the solvent from a solution or mixture using a rotary evaporator or vacuum pump. Unless otherwise noted, flash chromatography is carried out on a Teledyne Isco (Lincoln, NE), Analogix (Burlington, WI), or Biotage (Stockholm, SWE) automated chromatography system using a commercially available cartridge as the column. Columns may be purchased from Teledyne Isco, Analogix, Biotage, Varian (Palo Alto, CA), or Supelco (Bellefonte, PA) and are usually filled with silica gel as the stationary phase. Reverse phase prep-HPLC conditions, where used, can be found at the end of each experimental section. Aqueous solutions were concentrated on a Genevac (Ipswich, ENG) or by freeze-drying/lyophilization. Unless otherwise noted, all LRRK2 pIC50 data presented in tables refers to the LRRK2 G2019S Km ATP LanthaScreen™ assay (Life Technologies Corp., Carlsbad, CA) that is described in the Biological Assay section.
Biological Assay: LRRK2 Km ATP LanthaScreen™ Assay
The LRRK2 kinase activity reported herein as IC50 values was determined with LanthaScreen™ technology from Life Technologies Corporation (Carlsbad, CA) using GST-tagged truncated human mutant G2019S LRRK2 in the presence of the fluorescein-labeled peptide substrate LRRKtide, also from Life Technologies. The data presented for the Km ATP LanthaScreen™ Assay represents mean IC50 values based on several test results and may have reasonable deviations depending on the specific conditions and reagents used. Assays were performed in the presence of 134 μM ATP (Km ATP). Upon completion, the assay was stopped and phosphorylated substrate detected with a terbium (Tb)-labeled anti-pERM antibody (cat. no. PV4898). The compound dose response was prepared by diluting a 10 mM stock of compound to a maximum concentration of 9.99 μM in 100% dimethylsulfoxide followed by custom fold serial dilution in dimethylsulfoxide nine times. Twenty nanoliters of each dilution was spotted via a Labcyte Echo onto a 384-well black-sided plate (Corning 3575) followed by 15 μl of a 1.25 nM enzyme solution in 1× assay buffer (50 mM Tris pH 8.5, 10 mM MgCl2, 0.01% Brij-35, 1 mM EGTA, 2 mM dithiothreitol, 0.05 mM sodium orthovanadate). Following a 15-minute incubation at room temperature, the kinase reaction was started with the addition of 5 μl of 400 nM fluorescein-labeled LRRKtide peptide substrate and 134 μM ATP solution in 1× assay buffer. The reaction was allowed to progress at ambient temperature for 90 minutes. The reaction was then stopped by the addition of 20 μl of TR-FRET Dilution Buffer (Life Technologies, Carlsbad, CA) containing 2 nM Tb-labeled anti-phospho LRRKtide antibody and 10 mM EDTA (Life Technologies, Carlsbad, CA). After an incubation of 1 hour at room temperature, the plate was read on an EnVision multimode plate reader (Perkin Elmer, Waltham, MA) with an excitation wavelength of 337 nm (Laser) and a reading emission at both 520 and 495 nm. Compound IC50s were interpolated from nonlinear regression best fits of the log of the final compound concentration, plotted as a function of the 520/495-nm emission ratio using Activity base. Abase uses a 4 parameter (4P) logistic fit based on the Levenberg-Marquardt algorithm.
With “(3R or 3S)-N-[6-[4-((3R,4R or 3S,4S)-4-fluoro-3-methyl-tetrahydrofuran-3-yl)piperazin-1-yl]-7-methyl-3-isoquinolyl]-5,5-dimethyl-tetrahydrofuran-3-carboxamide [Ex-10.94]”, the “LRRK2 pIC50” value turned out to be 9.40.

For the compound “(3R or 3S)-N-[6-[4-((3R,4R or 3S,4S)-4-fluoro-3-methyl-tetrahydrofuran-3-yl)piperazin-1-yl]-7-methyl-3-isoquinolyl]-5,5-dimethyl-tetrahydrofuran-3-carboxamide [Ex-10.95]”, the “LRRK2 pIC50” value is listed as 9.64.

Still in this assay, the particulars now being: 134 μM ATP (Km ATP), LRRKtide substrate, mean of several tests, read-out: LRRK2 pIC50 (converted).
In the case of `COc1cc2cnc(NC(=O)C3CC34CCOCC4)cc2cc1N1CCN(C2(C)COCC2O)CC1` (single isomer, unassigned) [Ex-13], the IC50 was 3.39 nM.

With `CCC1C(C(=O)Nc2cc3cc(N4CCN(C5(C)COCC5F)CC4)c(Cl)cc3cn2)C1c1ccn(C)n1` (single isomer, unassigned) [Ex-10.52, (1R,2R,3R, 1R,2S,3R, or 1S,2R,3S, or 1S,2S,3S)-N-[7-chloro-6-[4-((3R,4R or 3S,4S)-4-fluoro-3-methyl-tetrahydrofuran-3-yl)piperazin-1-yl]-3-isoquinolyl]-2-ethyl-3-(1-methylpyrazol-3-yl)cyclopropanecarboxamide], the IC50 is 0.603 nM.

In the case of `CC(C)n1nccc1C1CC1C(=O)Nc1cc2cc(N3CCN(C4(C)COCC4O)CC3)c(Cl)cc2cn1` (single isomer, unassigned) [Ex-10.22, (1R,2R or 1S,2S)-N-[7-chloro-6-[4-((3R,4R or 3S,4S)-4-hydroxy-3-methyl-tetrahydrofuran-3-yl)piperazin-1-yl]-3-isoquinolyl]-2-(2-isopropylpyrazol-3-yl)cyclopropanecarboxamide], the IC50 was 2.69 nM.

As to `COC1CC(C(=O)Nc2cc3cc(N4CCN(C5(C)COCC5O)CC4)c(Cl)cc3cn2)C1` (single isomer, unassigned) [Ex-7.2], the IC50 is 0.977 nM.

As for `CC1(N2CCN(c3cc4cc(NC(=O)C5CC56CCCOC6)ncc4cc3Cl)CC2)COCC1O` (single isomer, unassigned) [Ex-1.13, (1R,3S, or 1R,3R, or 1S,3S, or 1S,3R)-N-(7-chloro-6-(4-((3R,4R or 3S,4S)-4-hydroxy-3-methyltetrahydrofuran-3-yl)piperazin-1-yl)isoquinolin-3-yl)-5-oxaspiro[2.5]octane-1-carboxamide], the IC50 is 275 nM.

Regarding `Cc1cc2cnc(NC(=O)C3CC3c3ccccn3)cc2cc1N1CCN(C2(C)COCC2F)CC1` (single isomer, unassigned) [Ex-6.13], the IC50 was 0.0813 nM.

`CC1(N2CCN(c3cc4cc(NC(=O)C5CC56CC6)ncc4cc3Cl)CC2)COCC1O` (single isomer, unassigned) [Ex-2.14, (R or S)-N-(7-chloro-6-(4-((3R,4R or 3S,4S)-4-hydroxy-3-methyltetrahydrofuran-3-yl)piperazin-1-yl)isoquinolin-3-yl)spiro[2.2]pentane-1-carboxamide]: the IC50 was 0.468 nM.

Regarding `CC1(C)CC2(CCO1)CC2C(=O)Nc1cc2cc(N3CCN(C4(C)COCC4O)CC3)c(Cl)cc2cn1` (single isomer, unassigned) [Ex-7.3], the IC50 was 3.72 nM.

On to `CC1C(C(=O)Nc2cc3cc(N4CCN(C5(C)COCC5F)CC4)c(Cl)cc3cn2)C1c1ccn(C)n1` (single isomer, unassigned) [Ex-10.15], for which the IC50 was 1.17 nM.

Regarding `CC1(N2CCN(c3cc4cc(NC(=O)C5CC5c5ccco5)ncc4cc3Cl)CC2)COCC1O` (single isomer, unassigned) [Ex-10.30, (1R,2R or 1S,2S)-N-[7-chloro-6-[4-((3R,4R or 3S,4S)-4-hydroxy-3-methyl-tetrahydrofuran-3-yl)piperazin-1-yl]-3-isoquinolyl]-2-(2-furyl)cyclopropanecarboxamide], the IC50 was 0.0813 nM.

In the case of `CC1(N2CCN(c3cc4cc(NC(=O)C5CCC5C#N)ncc4cc3Cl)CC2)COCC1O` (single isomer, unassigned) [Ex-10.39, (1R,2R of 1S,2S)-N-[7-chloro-6-[4-((3R,4R or 3S,4S)-4-hydroxy-3-methyl-tetrahydrofuran-3-yl)piperazin-1-yl]-3-isoquinolyl]-2-cyano-cyclobutanecarboxamide], the IC50 was 0.0813 nM.

Consider `COC1COCC1N1CCN(c2cc3cc(NC(=O)C4CC45CCOCC5)ncc3cc2Cl)CC1` (single isomer, unassigned) [Ex-5.8], for which the IC50 is 191 nM.

Consider `CC1(N2CCN(c3cc4cc(NC(=O)C5CC56CC6)ncc4cc3Cl)CC2)COCC1F` (single isomer, unassigned) [Ex-10.79, (R or S)-N-[7-chloro-6-[4-((3R,4R or 3S,4S)-4-fluoro-3-methyl-tetrahydrofuran-3-yl)piperazin-1-yl]-3-isoquinolyl]spiro[2.2]pentane-2-carboxamide], for which the IC50 was 0.0813 nM.

On to `CC1(N2CCN(c3cc4cc(NC(=O)C5CCC5C#N)ncc4cc3Cl)CC2)COCC1F` (single isomer, unassigned) [Ex-10.67, (1R,2R or 1S,2S)-N-[7-chloro-6-[4-((3R,4R or 3S,4S)-4-fluoro-3-methyl-tetrahydrofuran-3-yl)piperazin-1-yl]-3-isoquinolyl]-2-cyano-cyclobutanecarboxamide], for which the IC50 was 0.102 nM.

With `CC1(C)C(C(=O)Nc2cc3cc(N4CCN(C5(C)COCC5O)CC4)c(Cl)cc3cn2)C1C1CCCCO1` (single isomer, unassigned) [Ex-10.91, (1R,2R,3R, 1R,2S,3R, or 1S,2R,3S, or 1S,2S,3S)-N-[7-chloro-6-[4-((3R,4R or 3S,4S)-4-hydroxy-3-methyl-tetrahydrofuran-3-yl)piperazin-1-yl]-3-isoquinolyl]-2,2-dimethyl-3-tetrahydropyran-2-yl-cyclopropanecarboxamide], the IC50 was 0.0813 nM.

For the compound `N#CC1CCN(c2cc3cc(NC(=O)C4CC4c4cncnc4)ncc3cc2Cl)CC1` (single isomer, unassigned) [Ex-5.17], the IC50 was 0.0813 nM.

With `Cc1cc2cnc(NC(=O)C3CC34CCOC4)cc2cc1N1CCN(C2(C)COCC2O)CC1` (single isomer, unassigned) [Ex-6.8, (1R, 3S or 1S,3R, or 1R,3S, or 1S,3S)-N-(6-(4-((3R, 4R or 3S,4S)-4-hydroxy-3-methyltetrahydrofuran-3-yl)piperazin-1-yl)-7-methylisoquinolin-3-yl)-5-oxaspiro[2.4]heptane-1-carboxamide], the IC50 was 631 nM.

As to `CC1(N2CCN(c3cc4cc(NC(=O)C56CC(C5)C6)ncc4cc3Cl)CC2)COCC1O` (single isomer, unassigned) [Ex-2.19, N-(7-chloro-6-(4-((3R,4R or 3S,4S)-4-hydroxy-3-methyltetrahydrofuran-3-yl)piperazin-1-yl)isoquinolin-3-yl)bicyclo[1.1.1]pentane-1-carboxamide], the IC50 was 2.88 nM.

Turning to `Cc1cc2cnc(NC(=O)C3C4CCOCC43)cc2cc1N1CCN(C2(C)CCOC2)CC1` (single isomer, unassigned) [Ex-10.45, (1S,6R,7R, 1R,6S,7R, or 1R, 6S,7S, or 1S,6S,7S)-N-(7-methyl-6-(4-((R or S)-3-methyltetrahydrofuran-3-yl)piperazin-1-yl)isoquinolin-3-yl)-3-oxabicyclo[4.1.0]heptane-7-carboxamide], the IC50 was 0.145 nM.

`CC1C(C(=O)Nc2cc3cc(N4CCN(C5(C)CCOC5)CC4)c(Cl)cc3cn2)C1c1cnn(C)c1` (single isomer, unassigned) [Ex-9.7]: the IC50 is 0.0813 nM.
